Activity calls are given as the source filed them. How the calls were made is not given here.
Assay: blockers of mitochondrial fusion, WT vs mutant – cell-based, chemical genetic, wild-type and mutant, confirmation (AID 1361)
Details: Cell-based mitochondrial fusion phenotype, imaging
[1] = mutant cells, measured here: mutant cell line IC50

S=C1NC(C23CC4CC(CC(C4)C2)C3)=CC(c2ccc3c(c2)OCO3)N1 (centres undefined)
IC50 (WT cells): 4.6 µM
IC50 [1]: > 25 µM

Cc1ccc(-n2cccc2/C=C2\C(=N)N3N=C(C(C)C)SC3=NC2=O)cc1
IC50 (WT cells): 10.6 µM
IC50 [1]: > 25 µM

Clc1ccc(CSc2nnc(-c3ccncc3)o2)c(Cl)c1
IC50 (WT cells): > 25 µM (inactive)
IC50 [1]: > 25 µM

Cc1ccc2c(c1)C1CN(C)CCC1N2C(=O)c1cn(-c2ccccc2)nc1-c1ccccc1 (centres undefined)
IC50 (WT cells): 23.6 µM
IC50 [1]: > 25 µM

CC(C)N(Cc1nc(-c2ccc(Cl)cc2)no1)C(=O)CCC1CCCC1
IC50 (WT cells): 13.7 µM
IC50 [1]: > 25 µM

Cc1nc(-c2ccccc2)sc1-c1nc(-c2ccncc2)ncc1S(=O)(=O)c1ccccc1
IC50 (WT cells): 10.5 µM
IC50 [1]: > 25 µM

COc1cc(C(=O)OC2CC3CCC2(C)C3(C)C)ccc1OC(C)=O (centres undefined)
IC50 (WT cells): 20 µM
IC50 [1]: > 25 µM

O=C(NC(=S)NCCC1=CCCCC1)c1ccccc1Br
IC50 (WT cells): 20.9 µM
IC50 [1]: > 25 µM

O=C(CCN1C(=O)/C(=C\c2cccs2)SC1=S)NC1=NCCS1
IC50 (WT cells): 8.36 µM
IC50 [1]: 17.6 µM

O=C(c1ccco1)N1CCN(c2c(-c3ccccc3)c3cc(Cl)ccc3[nH]c2=O)CC1
IC50 (WT cells): 13.2 µM
IC50 [1]: > 25 µM

CC(C)N=c1scc(-c2cccs2)n1/N=C/c1ccc(O)c(O)c1O
IC50 (WT cells): > 25 µM (inactive)
IC50 [1]: > 25 µM

COc1ccc(NC(=O)N2c3ccccc3CC2C)cc1OC (centres undefined)
IC50 (WT cells): > 25 µM (inactive)
IC50 [1]: > 25 µM

CCCCOc1c(Br)cc(/C=N/O)cc1OCC
IC50 (WT cells): > 25 µM (inactive)
IC50 [1]: > 25 µM

O=c1cc2c(nn1Cc1ccc(Cl)cc1Cl)-c1ccccc1CC2
IC50 (WT cells): 10.6 µM
IC50 [1]: 17.8 µM

CCCN(CCC)CCCNC(=O)CS(=O)Cc1nc(-c2ccc(OC)c(OC)c2)oc1C (centres undefined)
IC50 (WT cells): > 25 µM (inactive)
IC50 [1]: > 25 µM

CCOC(=O)c1c(C)[nH]c(C)c1C(=O)CSc1nnc(-c2ccncc2)n1C
IC50 (WT cells): > 25 µM (inactive)
IC50 [1]: > 25 µM

Cc1nn(CCC(N)=S)c2nc(-c3cccs3)cc(C(F)(F)F)c12
IC50 (WT cells): 18.9 µM
IC50 [1]: > 25 µM

Cc1nc(N2CCC(C)CC2)c2c(C)c(C(=O)Nc3cc(F)ccc3C)sc2n1
IC50 (WT cells): 19.7 µM
IC50 [1]: > 25 µM

COc1ccc(NS(=O)(=O)c2cc(C(=O)O)ccc2C)cc1
IC50 (WT cells): > 25 µM (inactive)
IC50 [1]: > 25 µM

O=C(Nc1ccc(F)cc1)N1CC2CC(C1)c1cccc(=O)n1C2 (centres undefined)
IC50 (WT cells): > 25 µM (inactive)
IC50 [1]: > 25 µM

CC(C)Cc1ccc(C(C)C(=O)OCC(=O)c2c[nH]c3ccccc23)cc1 (centres undefined)
IC50 (WT cells): 17.5 µM
IC50 [1]: > 25 µM

Cc1ccccc1C(=O)Oc1ccc(Sc2ccc(O)cc2)cc1
IC50 (WT cells): 8.72 µM
IC50 [1]: > 25 µM

COc1ccc(NC(=O)CN(c2ccc(C)cc2)S(C)(=O)=O)c(OC)c1
IC50 (WT cells): > 25 µM (inactive)
IC50 [1]: > 25 µM

CC(C)SCc1cc(N2CCCC2)nc(-c2ccccc2)n1
IC50 (WT cells): 23.5 µM
IC50 [1]: > 25 µM

Cc1cc(C)c(OCC(=O)Nc2nnc(-c3ccco3)o2)c(C)c1
IC50 (WT cells): > 25 µM (inactive)
IC50 [1]: > 25 µM

CC1CC1C(=O)OCC(=O)NCc1ccc(Cl)cc1Cl (centres undefined)
IC50 (WT cells): > 25 µM (inactive)
IC50 [1]: > 25 µM

COc1cccc(-c2ccc(C#N)c(OC(=O)c3c(Cl)cccc3Cl)n2)c1
IC50 (WT cells): > 25 µM (inactive)
IC50 [1]: > 25 µM

CC1CC(C)CN(C(=O)c2cc3cc(Br)cc(Br)c3o2)C1 (centres undefined)
IC50 (WT cells): 13.7 µM
IC50 [1]: 22.5 µM

Cc1ccc(C(C)C)c(OCCNC(=S)Nc2cccc3ccccc23)c1
IC50 (WT cells): 6.51 µM
IC50 [1]: > 25 µM

Cc1ccc(-c2csc3ncnc(N4CCc5ccccc5C4)c23)cc1
IC50 (WT cells): 9.52 µM
IC50 [1]: > 25 µM

C/C(=N\O)c1ccc2c3c([nH]c2c1)CCCC3
IC50 (WT cells): > 25 µM (inactive)
IC50 [1]: > 25 µM

CC(C)(C)n1nnnc1C(c1cccnc1)N(Cc1ccccc1)Cc1cccs1 (centres undefined)
IC50 (WT cells): 9.97 µM
IC50 [1]: > 25 µM

COCCNC(=S)N(CCc1c(C)[nH]c2ccc(Cl)cc12)Cc1cccs1
IC50 (WT cells): 8.8 µM
IC50 [1]: > 25 µM

CCN(CC)c1ccc(NC(=O)Nc2ccccc2C(F)(F)F)cc1
IC50 (WT cells): > 25 µM (inactive)
IC50 [1]: > 25 µM

O=C(CCc1ccccc1)Nc1ncc2c(n1)CCCC2=O
IC50 (WT cells): > 25 µM (inactive)
IC50 [1]: > 25 µM

CCCCCOc1ccc(CSCCNC(=S)Nc2ccccc2)cc1
IC50 (WT cells): 5.86 µM
IC50 [1]: > 25 µM

C=CCn1c(N)c(C(=O)OCC(C)C)c2nc3ccccc3nc21
IC50 (WT cells): > 25 µM (inactive)
IC50 [1]: > 25 µM

CN1/C(=C\C(=O)Nc2cccc(Cl)c2)C(C)(C)c2ccccc21
IC50 (WT cells): 9.74 µM
IC50 [1]: 24.7 µM

CC(C)CC(=O)NC(=S)N(Cc1ccccc1)Cc1ccccc1
IC50 (WT cells): 19.2 µM
IC50 [1]: > 25 µM

COc1ccc(C(=O)Nc2ccc(Cl)cc2C(=O)NCCN2CCOCC2)cc1
IC50 (WT cells): > 25 µM (inactive)
IC50 [1]: > 25 µM

COCCNC(=O)CC(NS(=O)(=O)c1ccc(C)cc1)c1ccco1 (centres undefined)
IC50 (WT cells): > 25 µM (inactive)
IC50 [1]: > 25 µM

N#CC1=C(N)NC(SCc2ccc(Br)cc2)=C(C#N)C12CCCCC2
IC50 (WT cells): > 25 µM (inactive)
IC50 [1]: > 25 µM
